In publication PMC6428247, “Potent inhibitors of equine steroid isomerase EcaGST A3-3” (PLoS ONE, 2019):
Several values for one entry are separate records, joined by “and”; a condition that tells them apart may be missing. Equal entries are not always repeated. Structures can show the parent of a compound that is named as a salt.

What was measured:
EcaGST A3-3 [1] = target: T1, EcaGST A3-3 (Equus caballus, UniProt M9ZT87); experiment: Inhibition of EcaGST A3-3 activity, GSH conjugation with CDNB; type: biochemical, Equus ferus caballus; conditions: for inhibition at 10 µM: read-out: Inhibition (%) of EcaGST A3-3; for IC50: 100 mM sodium phosphate pH 6.5, 30°C, read-out: IC50 EcaGST A3-3, substrate CDNB
T1 sequence (M9ZT87 entry or part of it): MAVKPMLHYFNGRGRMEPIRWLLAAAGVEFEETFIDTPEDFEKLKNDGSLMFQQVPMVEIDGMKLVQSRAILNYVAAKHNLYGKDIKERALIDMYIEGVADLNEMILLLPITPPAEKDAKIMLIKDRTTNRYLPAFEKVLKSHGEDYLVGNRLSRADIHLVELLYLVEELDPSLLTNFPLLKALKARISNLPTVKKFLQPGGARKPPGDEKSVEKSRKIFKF
Method: The final solvent concentration in the reaction system was kept at 5% (v/v) as a maximum.
(§1) The conjugation of GSH with the electrophilic substrate CDNB was used as a biochemical assay for general activity measurements. Screening of the US Drug library for inhibition was done in triplicates in 96-well plates in a Thermo Scientific Multiskan GO spectrophotometer. The conjugation activity at 30°C was monitored at 340 nm for 1 min in 0.1 M sodium phosphate buffer at pH 6.5 and 10 μM inhibitor concentration in a final volume of 300 μL. Initial concentrations of GSH and CDNB were 1 mM.
Assay conditions for inhibition measurements of enzyme activity with CDNB were the following: EcaGST A3-3 15 nM, initial concentrations of GSH and CDNB 1 mM, inhibitor concentrations varying from 0.029 μM to 15 μM, in 100 mM Na2HPO4/NaH2PO4 at pH 6.5.
The reactions were followed spectrophotometrically for 1 min at 30°C using a Shimadzu UV-2501 PC spectrophotometer (Shimadzu Inc.). All experiments included triplicate measurements in each data point.
The equation for competitive inhibition fitted by non-linear regression was v=Vmax[S]/KM(1+[I]/Ki)+[S] where [S] is the substrate concentrations and [I] is the inhibitor concentration.

EcaGST A3-3 [2] = target: T1, EcaGST A3-3; experiment: Inhibition of EcaGST A3-3 steroid double-bond isomerase activity with Δ^5-AD; type: biochemical, Equus ferus caballus; conditions: for IC50 EcaGST A3-3, substrate Δ^5-AD: 0.1 mM Δ^5-AD, 25 mM sodium phosphate pH 8.0, 30°C
HsaGST A3-3 = target: T2, HsaGST A3-3 (Homo sapiens, UniProt Q16772); experiment: Inhibition of HsaGST A3-3 CDNB activity; type: biochemical; conditions: 1 mM GSH, 1 mM CDNB, pH 6.5, 30°C; for IC50: CDNB activity
T2 construct: made in house
T2 sequence (Q16772 1-222): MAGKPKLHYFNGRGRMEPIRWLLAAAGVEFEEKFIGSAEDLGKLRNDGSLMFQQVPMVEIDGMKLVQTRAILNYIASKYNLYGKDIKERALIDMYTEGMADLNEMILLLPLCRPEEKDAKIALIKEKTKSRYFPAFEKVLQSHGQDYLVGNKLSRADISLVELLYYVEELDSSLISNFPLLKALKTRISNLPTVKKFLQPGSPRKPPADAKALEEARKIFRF
Method: (§2) EcaGST A3-3 [10], HsaGST A3-3 [12] and HsaGST M2-2 [13] were cloned, expressed and purified as described previously. Protein concentration was determined by means of the Bradford assay.
as §1
(§3) For understanding the effects of pharmacological interventions based on GST inhibitors, it is important to know the selectivity among the numerous GSTs. […] All values were determined with CDNB, which is a common substrate for all the enzymes.

HsaGST M2-2 = target: T3, HsaGST M2-2 (Homo sapiens, UniProt P28161); experiment: Inhibition of HsaGST M2-2 CDNB activity; type: biochemical; conditions: 1 mM GSH, 1 mM CDNB, pH 6.5, 30°C; for IC50: CDNB activity, read-out: IC50 HsaGST M2-2
T3 construct: made in house
T3 sequence (P28161 1-218): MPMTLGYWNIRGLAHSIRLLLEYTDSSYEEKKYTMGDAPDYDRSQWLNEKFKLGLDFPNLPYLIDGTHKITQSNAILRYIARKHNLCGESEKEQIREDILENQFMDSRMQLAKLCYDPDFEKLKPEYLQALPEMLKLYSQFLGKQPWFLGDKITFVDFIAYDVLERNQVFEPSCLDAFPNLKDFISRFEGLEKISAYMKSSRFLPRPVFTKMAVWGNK
Method: as §2, §1, §3

HsaGST P1-1 = test system: HsaGST P1-1; set-up: method as in PMID 23769903; conditions: 3.3 μM inhibitor, 1 mM GSH, 1 mM CDNB, pH 6.5, 30°C; cited from earlier work
HsaGST S1-1 = test system: HsaGST S1-1; set-up: method as in PMID 25603235; conditions: 1 mM GSH, 1 mM CDNB, pH 6.5, 30°C, cited from earlier work; for Inhibition (%) of HsaGST S1-1: 10 μM inhibitor
[3] = 10 μM inhibitor, 1 mM GSH, 1 mM CDNB, sodium phosphate pH 6.5, 30°C

SMILES: CCN(CCCc1ccccc1)CCCc1ccccc1 [Alverine citrate]
- inhibition at 10 µM (EcaGST A3-3 [1]; [3]): 31 ± 17%

SMILES: NCC(=O)CCC(=O)O [Aminolevulinic acid hydrochloride]
- inhibition at 10 µM (EcaGST A3-3 [1]; [3]): 32 ± 11%

SMILES: O=C1c2c(O)cccc2Cc2cccc(O)c21 [Anthralin]
- inhibition at 10 µM (EcaGST A3-3 [1]; [3]): 96 ± 1.8%
- IC50 (EcaGST A3-3 [1]; 1 mM CDNB, 1 mM GSH): 2100 ± 270 nM
- Hill coefficient, CDNB inhibition (EcaGST A3-3 [1]; dose-response curve, substrate CDNB, mean ± SD): 2.0±0.43
- IC50 (EcaGST A3-3 [2]): 85 ± 4.8 nM
- IC50 EcaGST A3-3, substrate Δ^5-AD (EcaGST A3-3 [2]; 1 mM GSH): submicromolar range
- Ki (EcaGST A3-3 [2]; Ki, EcaGST A3-3, substrate Δ^5-AD, Δ^5-AD varied, 1 mM GSH, 0.09 μM inhibitor): 90 nM and 93 nM
- Hill coefficient, Δ^5-AD inhibition (EcaGST A3-3 [2]; dose-response curve, substrate Δ^5-AD, mean ± SD): 1.9±0.19
- Times more potent with Δ^5-AD as substrate than with CDNB (EcaGST A3-3 [2]; ratio of IC50 values CDNB vs Δ^5-AD, EcaGST A3-3): approximately 25 times
- Inhibition modality, substrate Δ^5-AD (EcaGST A3-3 [2]; Δ^5-AD varied, 1 mM GSH): Competitive
- IC50 (HsaGST A3-3): 720 nM
- inhibition at 10 µM (HsaGST A3-3; pH 6.5, 10 μM inhibitor, read-out: Inhibition (%) of HsaGST A3-3): 88%
- inhibition at 10 µM (HsaGST M2-2; 10 μM inhibitor, read-out: Inhibition (%) of HsaGST M2-2): 80%
- Inhibition (%) of HsaGST P1-1 (HsaGST P1-1): 22%
- Inhibition (%) of HsaGST S1-1 (HsaGST S1-1): 84%
- IC50 (HsaGST S1-1; CDNB activity): 24000 nM

SMILES: OC[C@H]1O[C@H]([S-])[C@H](O)[C@@H](O)[C@@H]1O.[Au+] [Aurothioglucose]
- Inhibition (%) of EcaGST A3-3 (EcaGST A3-3 [1]; [3]): 78 ± 28%
- IC50 (EcaGST A3-3 [1]; 1 mM CDNB, 1 mM GSH): 850 ± 120 nM
- IC50 EcaGST A3-3, substrate Δ^5-AD (EcaGST A3-3 [2]; 1 mM GSH): Anomalous curve
- Inhibition (%) of HsaGST A3-3 (HsaGST A3-3; 10 μM inhibitor): 96%
- IC50 (HsaGST A3-3): 910 nM
- Inhibition (%) of HsaGST M2-2 (HsaGST M2-2; 10 μM inhibitor): 85%
- IC50 (HsaGST M2-2): 12000 nM
- Inhibition (%) of HsaGST P1-1 (HsaGST P1-1): < 4%
- Inhibition (%) of HsaGST S1-1 (HsaGST S1-1): 24%

SMILES: O=C(Nc1ccc(C(=O)O)c(O)c1)c1ccccc1 [Benzoylpas]
- IC50 (HsaGST M2-2): 2500 nM

SMILES: O=[N+]([O-])c1ccc(Cl)c([N+](=O)[O-])c1 [CDNB, 1-chloro-2,4-dinitrobenzene]
- Km (EcaGST A3-3 [1]; read-out: Km of substrate CDNB with EcaGST A3-3, 1 mM GSH, fitted with and without ethacrynic acid): 1260 ± 82 µM

SMILES: CCCCCCCCCCCCCCCC(=O)OC[C@@H](NC(=O)C(Cl)Cl)[C@H](O)c1ccc([N+](=O)[O-])cc1 [Chloramphenicol palmitate]
- inhibition at 10 µM (EcaGST A3-3 [1]; [3]): 40 ± 1%

SMILES: CC[C@H]1OC(=O)[C@H](C)[C@@H](O[C@H]2C[C@@](C)(OC)[C@@H](O)[C@H](C)O2)[C@H](C)[C@@H](O[C@@H]2O[C@H](C)C[C@H](N(C)C)[C@H]2O)[C@](C)(OC)C[C@@H](C)C(=O)[C@H](C)[C@@H](O)[C@]1(C)O [Clarithromycin]
- inhibition at 10 µM (EcaGST A3-3 [1]; [3]): 36 ± 7%

SMILES: Oc1c(I)cc(Cl)c2cccnc12 [Clioquinol]
- inhibition at 10 µM (EcaGST A3-3 [1]; [3]): 64 ± 21%

SMILES: CC(C)/N=c1\cc2n(-c3ccc(Cl)cc3)c3ccccc3nc-2cc1Nc1ccc(Cl)cc1 [Clofazimine]
- inhibition at 10 µM (EcaGST A3-3 [1]; [3]): 52 ± 14%

SMILES: C[C@]12CC[C@@H]3c4ccc(OS(=O)(=O)O)cc4CC[C@H]3[C@@H]1CCC2=O [Estropipate]
- inhibition at 10 µM (EcaGST A3-3 [1]; [3]): 37 ± 23%

SMILES: C=C1C[C@@H]2[C@H](CC[C@]3(C)C(=O)CC[C@@H]23)[C@@]2(C)C=CC(=O)C=C12 [Exemestane]
- inhibition at 10 µM (EcaGST A3-3 [1]; [3]): 41 ± 12%

SMILES: CC(C)n1c(/C=C/C(O)CC(O)CC(=O)O)c(-c2ccc(F)cc2)c2ccccc21 (stereo not shown) [Fluvastatin sodium]
- inhibition at 10 µM (EcaGST A3-3 [1]; [3]): 31 ± 24%

SMILES: OCCOCCN1CCN(C(c2ccccc2)c2ccc(Cl)cc2)CC1 (stereo not shown) [Hydroxyzine pamoate]
- inhibition at 10 µM (EcaGST A3-3 [1]; [3]): ≤ 30%
- IC50 (HsaGST M2-2): 760 nM
